The METLIN SMRT retention time set (Domingo-Almenara et al. 2019)

Assay: gradient 5% acetonitrile 3 min, to 50% in 2 min, to 85% in 15 min, held 3 min, 100 µL/min
Settings: column: Zorbax Extend-C18 2.1 x 50 mm; eluents: water / acetonitrile, 0.1% formic acid
How it was run: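 Data were gathered over 3 months by HPLC coupled to a quadrupole time-of-flight mass spectrometer, operated in positive and negative ionization mode. Mixtures of ~100 pure standards ran on a Zorbax Extend-C18 column (2.1 × 50 mm, 1.8 μm) at 100 μL/min, with water and acetonitrile each containing 0.1% formic acid and dead and dwell volumes of 40 μL and 900 μL. Retention time was read from adduct peaks picked by computer and checked manually.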

| Structure (SMILES) | RP-LC retention time |
| --- | --- |
| O=C(Cc1ccc(Cl)cc1)Nc1ccsc1-c1nnc(C2CC2)o1 | 1190 s |
| Cc1c(C(=O)C(=O)N(C)Cc2ccccc2)c2ccccc2n1C | 900 s |
| O=S(=O)(c1ccc2c(c1)CCC2)N1CCCC1c1noc(CO)n1 (stereo not given) | 779 s |
| CCC(C)NC(=O)N1CCCN(C2=NS(=O)(=O)C(c3ccc(Cl)cc3)=C2C)CC1 (stereo not given) | 825 s |
| Cc1ccc(C(=O)Nc2ccc3c(c2)CCC(=O)N3C)s1 | 712 s |
| CCNc1cc(C)nc(N2CCN(C(=O)CC(C)C)CC2)n1 | 613 s |
| O=C(NC1CCCCCC1)C1=C2CCCN2c2ccc(F)cc2S1(=O)=O | 970 s |
| COc1cc(NC(=O)CN2CCN(Cc3ccccc3)C(=O)C2=O)cc(OC)c1OC | 669 s |
| CCC(C)NC(=O)c1cn(C)nc1S(=O)(=O)N1CCN(c2cc(Cl)ccc2C)CC1 (stereo not given) | 1150 s |
| COc1ccc(-c2nc(CS(=O)(=O)c3ccc(C)cc3)no2)c(C)c1 | 1010 s |
| COc1cc(OC)c(NC(=O)C2CC(=O)N(c3cccc(NC(C)=O)c3)C2)cc1Cl (stereo not given) | 712 s |
| COc1ccc2[nH]c3c(c2c1)CCNC3c1ccc(C)cc1 (stereo not given) | 654 s |
| O=C(c1ccoc1)N1CCC(c2noc(C3CC3)n2)C1 (stereo not given) | 694 s |
| COC(=O)c1ccc(CSc2nnc(N3CCN(c4ccc(F)cc4)CC3)s2)o1 | 927 s |
| CCOc1ccc(NC(=O)CCC2CCN(c3cc(NC4CC4)ncn3)CC2)cc1 | 710 s |
| CCCNC(=O)CCNc1c(-c2ccccc2C)nc2cnccn12 | 607 s |
| Cc1ccc(CNc2cc(-n3ccnc3)ncn2)cc1C | 682 s |
| Cc1ccc(-n2c(SCc3nc(-c4ccc(F)cc4)no3)nc3cc4c(cc3c2=O)OCO4)cc1 | 1220 s |
| C=CCNC(=O)c1nnn(Cc2ccc(C)cc2)c1-n1cccc1 | 966 s |
| CC(=O)N1c2ccc(S(=O)(=O)N3CCCCC3)cc2CC1C(=O)NCCN1CCCCCC1 (stereo not given) | 639 s |
| O=C(C1CC1)N1CCc2sc(S(=O)(=O)NCc3ccccc3)cc2C1 | 795 s |
| Cc1nc(-c2ccc(C(=O)N(C)C)c(F)c2)no1 | 693 s |
| Cn1cccc1C(=O)C(=O)NCc1ccc2c(c1)OCO2 | 793 s |

| Structure (SMILES) | RP-LC retention time |
| --- | --- |
| N#CCCSc1ccccc1NC(=O)c1ccc(S(=O)(=O)N2CCCCCC2)cc1 | 946 s |
| O=C(CCCc1c[nH]c2ccccc12)NC1CCN(c2ccc(=O)[nH]n2)C1 (stereo not given) | 640 s |
| CCn1nc(C)c(CCNC(=O)Nc2ccccc2C(=O)OC)c1C | 646 s |
| O=C(CC1CCN(C(=O)Nc2ccc(F)cc2F)CC1)N1CCCCC1 | 722 s |
| CCCNc1cc(N2CCC(CCC(=O)NCc3ccccc3)CC2)ncn1 | 666 s |
| O=C(CSc1ccc(N2CCOCC2)nn1)Nc1ccccc1Cl | 730 s |
| Cc1cc(S(=O)(=O)N2CC(Cc3nncn3C3CCCC3)C2)ccc1F | 747 s |
| CC(C(=O)Nc1ccc(Cl)cc1)C1CCN(C(=O)Nc2ccccc2)CC1 (stereo not given) | 910 s |
| Cc1ccc(C)c(-c2coc(-c3ccc(NC(=O)c4sccc4C)cc3)n2)c1 | 1330 s |
| COc1ccc(Cl)cc1NC(=O)N1CCCC(C)(C(=O)NCc2ccc(C)cc2)C1 (stereo not given) | 982 s |
| Cc1ccc(NC(=O)Nc2ccc(NC(=O)N3CCCC(C(=O)NCC4CC4)C3)cc2)cc1 (stereo not given) | 779 s |
| CCc1nnc([C@@H]2CC(F)(F)CN2C(=O)c2n[nH]c3ccccc23)o1 | 734 s |
| O=C(NCc1[nH]nc2ccccc12)c1ccc2c(c1)OCO2 | 704 s |
| Cc1cc(Cn2cnc3c2C[C@@H](C(=O)O)N(C(=O)C(c2ccccc2)c2ccccc2)C3)ccc1N | 700 s |
| Cc1c(S(=O)(=O)Nc2ccccc2)c(C)n(C)c1-c1nnc(C2CCC2)o1 | 870 s |
| CCC(=O)N1CCc2c(sc3ncnc(N4CCN(C)CC4)c23)C1 | 546 s |
| COc1cc(O)ccc1-c1nc2ccc(Br)cn2c1Nc1ccccc1C | 736 s |
| CCOc1ccccc1C(=O)N1CCN=C1SCc1ccc([N+](=O)[O-])cc1 | 898 s |
| Cc1cccc(CNC(=O)C2(C)Cn3cnc(C(=O)NCc4ccccc4F)c3C(=O)N2C2CC2)c1 (stereo not given) | 772 s |
| O=C(Nc1cccn2c(C3CCC3)nnc12)c1ccc(Cl)s1 | 871 s |
| COCc1nc(CCNS(=O)(=O)Cc2ccccc2)no1 | 722 s |
| CC(C)Cc1nnc(NC(=O)C2CCN(C(=O)c3cccc(F)c3)CC2)s1 | 780 s |
| Fc1ccccc1CSc1ccc2nnc(-c3cccnc3)n2n1 | 680 s |

| Structure (SMILES) | RP-LC retention time |
| --- | --- |
| Cc1ccc(-c2cc3c(=O)n(Cc4nc(-c5ccccn5)no4)ccn3n2)cc1C | 909 s |
| Cc1ccc(N2CCC(NC(=O)NC(C)(C)C)C2=O)cc1C (stereo not given) | 803 s |
| O=C1NC2(CCN(C(=O)Nc3ccc(Cl)cc3)CC2)N=C1c1cccc(F)c1 | 872 s |
| Cc1sc(-c2cc(C(F)(F)F)on2)cc1S(=O)(=O)NCCC(C)C | 1200 s |
| O=c1n(Cc2cc(F)cc(F)c2)nc2c(S(=O)(=O)N3CCOCC3)cccn12 | 743 s |
| Cn1nccc1C(=O)N1CCCC1c1nc(-c2cccc(C(F)(F)F)c2)no1 (stereo not given) | 940 s |
| Cc1cccc(C)c1N1CC(c2nc3ccccc3n2CC(=O)N2CCOCC2)CC1=O (stereo not given) | 652 s |
| O=c1ccc(-c2ccc(S(=O)(=O)N3CCN(c4ccccn4)CC3)s2)n[nH]1 | 595 s |
| CCOc1ccc(-c2noc(N3CCC(C(=O)N4CCCC4)CC3)n2)cc1OC | 782 s |
| CCCC(=O)Nc1nc(-c2ccc(OC)cc2)c(C)s1 | 956 s |
| CCc1nc2cc(N3CCCC(C(=O)NCCN(C)C)C3)cnc2nc1CC (stereo not given) | 604 s |
| NC(=O)c1cc(-c2ccccc2)nc2ccccc12 | 743 s |
| O=C(NC1CCCCC1)C1CCCN(c2nc3ccsc3c(=O)n2Cc2ccccc2)C1 (stereo not given) | 957 s |
| Cn1c(=O)c2cc(C(=O)Nc3ccccc3C(N)=O)cnc2n(-c2ccccc2)c1=O | 788 s |
| CC1CCCN(C(=O)C(=O)NCc2n[nH]c(=O)c3ccccc23)C1 (stereo not given) | 644 s |
| Cc1ccc(C)n1-c1nnc(N2CCCC(C(=O)NC3CC3)C2)s1 (stereo not given) | 780 s |
| COc1cccc(-c2noc(C3CCCN3C(=O)Nc3ccc(OC)cc3OC)n2)c1 (stereo not given) | 941 s |
| COc1cccc(-c2nnc(Cc3nc(-c4cccc(C(F)(F)F)c4)no3)o2)c1 | 1100 s |
| Cc1cc(-c2cc(S(=O)(=O)NC3CCCCCC3)c(C)s2)n[nH]1 | 917 s |
| COc1cc2c(cc1CC=C(C)C)C(=O)C[C@@H](c1ccc(O)cc1)O2 | 1190 s |
| CCCCN1CCc2nc(Nc3cc(OC)ccc3OC)ncc2C1 | 655 s |
| CN(CCNC(=O)C1CCCN(c2cnc3nccnc3c2)C1)C1CCCCC1 (stereo not given) | 577 s |
| CCC(C)n1c(=O)c2ccccc2n(Cc2nc(-c3ccccc3)no2)c1=O (stereo not given) | 1190 s |

| Structure (SMILES) | RP-LC retention time |
| --- | --- |
| Cc1ccc(C(=O)N2[C@H]3CC[C@@H]2c2cnc(-c4ccc(F)cc4)nc2C3)cn1 | 735 s |
| CC(C)NC(=O)c1ccc(OCC2CCCN(C(=O)c3cccc(Cl)c3)C2)cc1 (stereo not given) | 899 s |
| CCCn1cc(S(=O)(=O)Nc2cc(F)ccc2C)c2cccnc21 | 926 s |
| O=C1Cc2cc(NC(=O)NC(c3ccccc3)c3ccccc3)ccc2N1 | 706 s |
| CCOC(=O)c1ccc(NC(=O)c2ccccc2-c2ccccc2C(=O)O)cc1 | 842 s |
| CC(=O)N1CCc2sc(S(=O)(=O)N3CCN(c4cccc(C)c4C)CC3)cc2C1 | 1030 s |
| Cc1ccsc1CN1CCc2[nH]nc(C(=O)N(C)C)c2C1 | 559 s |
| CCCCNC(=O)C1CCN(Cc2cc3ccccc3n2Cc2cccc(C)c2)CC1 | 800 s |
| Cc1ccccc1CNC(=O)c1cn(-c2cc(-c3nc(C4CC4)no3)ccn2)cn1 | 982 s |
| Cc1ccc(-c2c(C)noc2C)cc1S(=O)(=O)NCc1ccccc1 | 924 s |
| CC1(C)CC(=O)C2=C(C1)Nc1ccccc1N(CC(=O)NCc1ccncc1)C2c1ccco1 (stereo not given) | 631 s |
| CN(Cc1nc2ccccc2[nH]1)C(=O)c1ccco1 | 537 s |
| CCc1ccc(CN2C(=O)c3c(C(=O)OC)ncn3CC2(C)C(=O)NCc2ccccc2)cc1 (stereo not given) | 801 s |
| COc1ccccc1NC(=O)N1CCN(c2cc(C)nc(N3CCOCC3)n2)CC1 | 618 s |
| CCCCN(CC)c1nc2cc(C(=O)OC)ccc2c(=O)n1-c1ccccc1 | 1250 s |
| CCN1C(=O)CN(C(=O)C2CCCC2)CC12CCOCC2 | 651 s |
| CCc1ccc(CNC(=O)c2cc(-c3ccncc3)cn2C)cc1 | 669 s |
| O=C(Cc1ccsc1)Nc1cccn2c(C3CCC3)nnc12 | 745 s |
| CC12CC(NC(=O)N1c1cccc(C(=O)NCc3cccnc3)c1)c1cc(Br)ccc1O2 (stereo not given) | 642 s |
| O=C(Cn1nc2ccc(-c3ccc(Cl)cc3)nn2c1=O)N1CCN(c2ccc(F)cc2)CC1 | 876 s |
| COc1cccc2cc(C(=O)NCC3CCN(S(=O)(=O)C4CC4)CC3)oc12 | 754 s |
